The term IC50 denotes the point on the concentration scale where inhibition reaches its midpoint. Broadly, the inhibition is the relative decrease from the control value, in per cent.

Some results are limits rather than exact numbers.

Experiment [1] has as its target T1, Fatty-acid amide hydrolase 1 (Rattus norvegicus) (UniProt P97612).
T1 sequence (whole entry): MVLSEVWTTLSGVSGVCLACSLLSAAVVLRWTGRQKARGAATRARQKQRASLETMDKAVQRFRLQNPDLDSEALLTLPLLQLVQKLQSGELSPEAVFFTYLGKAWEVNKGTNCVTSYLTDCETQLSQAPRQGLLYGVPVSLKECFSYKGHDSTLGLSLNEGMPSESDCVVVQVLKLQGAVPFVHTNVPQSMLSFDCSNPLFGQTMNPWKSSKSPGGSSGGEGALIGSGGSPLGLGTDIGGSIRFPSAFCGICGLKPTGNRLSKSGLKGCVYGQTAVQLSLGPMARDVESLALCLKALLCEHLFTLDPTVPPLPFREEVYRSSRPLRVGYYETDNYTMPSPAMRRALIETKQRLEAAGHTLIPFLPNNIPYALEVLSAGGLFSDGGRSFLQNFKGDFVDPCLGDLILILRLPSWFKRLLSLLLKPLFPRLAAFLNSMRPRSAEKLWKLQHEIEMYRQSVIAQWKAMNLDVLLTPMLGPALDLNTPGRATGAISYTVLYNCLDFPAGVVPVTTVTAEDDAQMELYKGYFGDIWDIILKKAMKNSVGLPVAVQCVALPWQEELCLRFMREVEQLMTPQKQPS
Nature of the experiment: (§1) Inhibition of FAAH in rat cerebellum membranes assessed as [3H]anandamide hydrolysis. In kind it is cell membranes. Conditions: Membrane.

The target of experiment [2] is T2, Fatty-acid amide hydrolase 1 (Rattus norvegicus, UniProt P97612).
T2 sequence (P97612 whole entry): T1 sequence (whole entry)
Described as §1. It is filed as cell membranes, Membrane.

In experiment [3] the target is T3, Monoglyceride lipase (Rattus norvegicus) (UniProt Q8R431).
T3 sequence (whole entry): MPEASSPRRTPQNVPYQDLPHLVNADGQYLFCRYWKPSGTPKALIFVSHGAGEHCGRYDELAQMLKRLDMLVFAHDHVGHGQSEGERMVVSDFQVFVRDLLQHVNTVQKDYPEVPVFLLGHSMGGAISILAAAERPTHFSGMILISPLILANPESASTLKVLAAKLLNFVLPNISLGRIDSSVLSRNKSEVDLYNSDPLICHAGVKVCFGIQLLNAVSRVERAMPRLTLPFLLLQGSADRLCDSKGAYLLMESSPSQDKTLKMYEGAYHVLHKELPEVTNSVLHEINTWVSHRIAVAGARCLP
Nature of the experiment: (§2) Inhibition of MGL in rat cerebellum cytosolic fractions assessed as [3H]2-oleoylglycerol hydrolysis. In kind it is tissue-based.

In experiment [4] the target is T3, Monoglyceride lipase (Rattus norvegicus). Nature of the experiment: Inhibition of MGL in rat cerebellum membrane fractions assessed as [3H]2-oleoylglycerol hydrolysis. In kind it is cell membranes.
Experiment [5] addresses T1, Fatty-acid amide hydrolase 1 (Rattus norvegicus). Briefly: Inhibition of FAAH in rat cerebellum membranes assessed as [3H]anandamide hydrolysis at 100 uM. It is filed as cell membranes. The conditions noted are these: Membrane.
The target of experiment [6] is T3, Monoglyceride lipase (Rattus norvegicus). Briefly: Inhibition of MGL in rat cerebellum membrane fractions assessed as [3H]2-oleoylglycerol hydrolysis at 100 uM. In kind it is cell membranes.
The target is the same in experiment [7]. Nature of the experiment: Inhibition of MGL in rat cerebellum cytosolic fractions assessed as [3H]2-oleoylglycerol hydrolysis at 100 uM. It is filed as tissue-based.
Experiment [8] concerns the target T4, Monoglyceride lipase (Rattus norvegicus, UniProt Q8R431).
T4 sequence (Q8R431 whole entry): T3 sequence (whole entry)
The description is as §2. It is filed as tissue-based.

`CCCCCC/C=C\CCCCCCCC(=O)OCC1CCCCO1` (racemic): the pI50 (-log10 of IC50 in M) in experiment [1] is 5. The IC50 in experiment [2] was determined as 10 µM. In addition, the pI50 (-log I50, M) in experiment [3] is less than 4. Besides, the Log I50 in experiment [4] was less than 4. Moreover, the inhibition in experiment [5] was 82%; in experiment [6] it was 36%; in experiment [7], 42%.
For the molecule `O=C(OCC1CO1)c1ccccc1-c1ccccc1` (racemic), the pI50 (-log10 of IC50 in M) in experiment [1] was less than 4. In experiment [3], the pI50 (-log I50, M) is less than 4. In experiment [4], the Log I50 was less than 4. In addition, the inhibition in experiment [5] amounted to 5%; in experiment [6], 18%; in experiment [7], 29%.
For `CCCCC/C=C\C/C=C\C/C=C\C/C=C\CCCC(=O)OCC1CCOC1` (centres undefined), the pI50 (-log10 of IC50 in M) in experiment [1] was determined as 4.98. Besides, the IC50 worked out at 11 µM in experiment [2] and 43 µM in experiment [8]. For the same molecule, the pI50 (-log I50, M) in experiment [3] was found to be 4.37. Further, the Log I50 in experiment [4] is less than 4. The inhibition in experiment [5] was 78%; in experiment [6] it was 46%.
For the molecule `O=C(OCC1CO1)c1ccccc1` (racemic), the pI50 (-log10 of IC50 in M) in experiment [1] is less than 4. Moreover, the pI50 (-log I50, M) in experiment [3] was less than 4. For the same molecule, the Log I50 in experiment [4] is less than 4. The inhibition came to 19% in experiment [5], 0.2% in experiment [6] and 14% in experiment [7].
Take `CCCCC/C=C\C/C=C\C/C=C\C/C=C\CCCC(=O)OC1CCOCC1`: in experiment [1], the pI50 (-log10 of IC50 in M) turned out to be 5.3. For the same molecule, the IC50 in experiment [2] worked out at 5.3 µM; in experiment [8], 30 µM. Besides, the pI50 (-log I50, M) in experiment [3] was 4.5. Also, in experiment [4], the Log I50 was less than 4. The inhibition worked out at 63% in experiment [5], 33% in experiment [6] and 62% in experiment [7].

The values are drawn from ChEMBL document CHEMBL1148794, “Structure-activity relationship of a series of inhibitors of monoacylglycerol hydrolysis--comparison with effects upon fatty acid amide hydrolase” (J Med Chem, 2007).
